Laboratory results as given in the supplement of paper PMC10331698.
± gives the standard deviation of the averaged measurements.

Experiments:
Assay in all cases: level (log10 ratio to DMSO vehicle control); higher = higher biomarker level / cell amount than vehicle control
Octafluoroadipamide = compound: NC(=O)C(F)(F)C(F)(F)C(F)(F)C(F)(F)C(N)=O [Octafluoroadipamide]; details: in DMSO
Experimental: (§1)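 BioMAP Diversity Plus panel of 12 human primary cell co-culture systems (3C, 4H, LPS, SAg, BT, BF4T, BE3C, CASM3C, HDF3CGF, KF3CT, MyoF, Mphg). Compounds were added 1 h before stimulation and left for 24 h (MyoF 48 h; BT 72 h for soluble read-outs or 6 d for IgG). Biomarkers were read by ELISA, cytotoxicity by SRB, PBMC viability and proliferation by Alamar Blue. Each well value was divided by the mean of 8 DMSO control wells on the same plate and log10 transformed; duplicate blinded samples were tested at 4 concentrations.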

[1] = compound: FC(F)(F)C(F)(F)C(F)(F)CC1CO1 [1H,1H-Heptafluorobutyl epoxide]; details: in DMSO
Experimental: as §1

Heptafluorobutyl iodide = compound: FC(F)(F)C(F)(F)C(F)(F)CI [Heptafluorobutyl iodide]; details: in DMSO
Experimental: as §1

Nonafluoropentanamide = compound: NC(=O)C(F)(F)C(F)(F)C(F)(F)C(F)(F)F [Nonafluoropentanamide]; details: in DMSO
Experimental: as §1

[2] = compound: COC(=O)C(F)(F)C(F)(F)OC(F)(C(F)(F)F)C(F)(F)OC(F)=C(F)F [Methyl perfluoro(3-(1-ethenyloxypropan-2-yloxy)propanoate)]; details: in DMSO
Experimental: as §1

[3] = compound: C=C(C)C(=O)OCCC(F)(F)C(F)(F)C(F)(F)C(F)(F)C(F)(F)C(F)(F)F [6:2 Fluorotelomer methacrylate]; details: in DMSO
Experimental: as §1

[4] = compound: O=S(=O)(O)CCC(F)(F)C(F)(F)C(F)(F)C(F)(F)C(F)(F)C(F)(F)F [6:2 Fluorotelomer sulfonic acid]; details: in DMSO
Experimental: as §1

[5] = compound: FC(F)(F)C(F)(F)C(F)(F)C(F)(F)C(F)(F)C(F)(F)CC1CO1 [3-(Perfluorohexyl)-1,2-epoxypropane]; details: in DMSO
Experimental: as §1

[6] = compound: O=S(=O)(O)C(F)(F)C(F)(F)C(F)(F)C(F)(F)C(F)(F)C(F)(F)C(F)(F)C(F)(F)C(F)(F)C(F)(F)F [Sodium perfluorodecanesulfonate]; details: in DMSO
Experimental: as §1

[7] = compound: O=S(=O)(F)C(F)(F)C(F)(F)C(F)(F)C(F)(F)C(F)(F)C(F)(F)C(F)(F)C(F)(F)F [Perfluorooctanesulfonyl fluoride]; details: in DMSO
Experimental: as §1

[8] = compound: NC(=O)C(F)(F)C(F)(F)C(F)(F)C(F)F; details: in DMSO
Experimental: as §1

Hexafluoroamylene glycol = compound: OCC(F)(F)C(F)(F)C(F)(F)CO [Hexafluoroamylene glycol]; details: in DMSO
Experimental: as §1

[9] = compound: O=C(O)C=CC(F)(C(F)(F)F)C(F)(F)F [3-(Perfluoroisopropyl)-2-propenoic acid]; details: in DMSO
Experimental: as §1

[10] = compound: NS(=O)(=O)C(F)(F)C(F)(F)C(F)(F)C(F)(F)C(F)(F)C(F)(F)F [Perfluorohexanesulfonamide]; details: in DMSO
Experimental: as §1

[11] = compound: C=CC(=O)OCC(F)(F)C(F)(F)C(F)(F)COC(=O)C=C [1H,1H,5H,5H-Perfluoro-1,5-pentanediol diacrylate]; details: 6700 nM; in DMSO
Experimental: as §1

[12] = compound: FC(F)(F)C(F)(F)C(F)(F)C(F)(F)C(F)(F)C(F)(F)C(F)(F)I [1-Iodopentadecafluoroheptane]; details: in DMSO
Experimental: as §1

[13] = compound: FC(F)(F)C(F)(F)CNCC(F)(F)C(F)(F)F [Bis(1H,1H-perfluoropropyl)amine]; details: in DMSO
Experimental: as §1

[14] = compound: O=C(O)C(F)(F)C(F)(F)C(F)(F)C(F)(F)C(F)(F)C(F)(F)C(F)(F)C(F)(F)C(F)(F)C(F)F [11-H-Perfluoroundecanoic acid]; details: in DMSO
Experimental: as §1

[15] = compound: O=S(=O)(Cl)C(F)(F)C(F)(F)C(F)(F)C(F)(F)C(F)(F)C(F)(F)C(F)(F)C(F)(F)F [Perfluoro-1-octanesulfonyl chloride]; details: in DMSO
Experimental: as §1

BE3C:MMP-9
level (log10) (Octafluoroadipamide; 6700 nM): -0.024 ± 0.021
level (log10) (Octafluoroadipamide; 20000 nM): -0.0235 ± 0.015
level (log10) (Octafluoroadipamide; 60000 nM): 0.0015 ± 0.029
level (log10) ([1]; 6700 nM): -0.0065 ± 0.0078
level (log10) ([1]; 20000 nM): 0.015 ± 0.014
level (log10) ([1]; 60000 nM): -0.013 ± 0.0014
level (log10) (Heptafluorobutyl iodide; 6700 nM): -0.005 ± 0.0014
level (log10) (Heptafluorobutyl iodide; 20000 nM): -0.0085 ± 0.0064
level (log10) (Heptafluorobutyl iodide; 60000 nM): 0.0115 ± 0.015
level (log10) (Nonafluoropentanamide; 6700 nM): -0.0405 ± 0.03
level (log10) (Nonafluoropentanamide; 20000 nM): -0.026 ± 0.0071
level (log10) (Nonafluoropentanamide; 60000 nM): -0.0095 ± 0.005
level (log10) ([2]; 6700 nM): -0.041 ± 0.038
level (log10) ([2]; 20000 nM): -0.004 ± 0.0057
level (log10) ([3]; 6700 nM): 0.014 ± 0.0071
level (log10) ([3]; 20000 nM): 0.015 ± 0.0042
level (log10) ([3]; 60000 nM): 0.025 ± 0.011
level (log10) ([4]; 6700 nM): -0.004 ± 0.021
level (log10) ([4]; 20000 nM): -0.0045 ± 0.0078
level (log10) ([4]; 60000 nM): 0.016 ± 0.021
level (log10) ([5]; 6700 nM): -0.036 ± 0.0042
level (log10) ([5]; 20000 nM): -0.036
level (log10) ([5]; 60000 nM): -0.004 ± 0.042
level (log10) ([6]; 1500 nM): -0.0125 ± 0.04
level (log10) ([6]; 4400 nM): 0.0105 ± 0.005
level (log10) ([6]; 13000 nM): -0.0785 ± 0.013
level (log10) ([6]; 40000 nM): -0.302 ± 0.041
level (log10) ([7]; 6700 nM): -0.025 ± 0.024
level (log10) ([7]; 20000 nM): -0.02 ± 0.0042
level (log10) ([7]; 60000 nM): -0.026 ± 0.0071
level (log10) ([8]; 6700 nM): -0.007 ± 0.0014
level (log10) ([8]; 20000 nM): -0.0045 ± 0.0092
level (log10) ([8]; 60000 nM): 0.0095 ± 0.023
level (log10) (Hexafluoroamylene glycol; 6700 nM): -0.014 ± 0.0099
level (log10) (Hexafluoroamylene glycol; 20000 nM): -0.01 ± 0.0057
level (log10) (Hexafluoroamylene glycol; 60000 nM): 0.008 ± 0.033
level (log10) ([9]; 6700 nM): -0.018 ± 0.0042
level (log10) ([9]; 20000 nM): -0.008 ± 0.0028
level (log10) ([9]; 60000 nM): 0.007 ± 0.04
level (log10) ([10]; 6700 nM): -0.0585 ± 0.015
level (log10) ([10]; 20000 nM): -0.0435 ± 0.005
level (log10) ([10]; 60000 nM): -0.131 ± 0.028
level (log10) [11]: -0.0485 ± 0.0078
level (log10) ([12]; 6700 nM): -0.014 ± 0.035
level (log10) ([12]; 20000 nM): -0.0465 ± 0.015
level (log10) ([13]; 6700 nM): -0.026 ± 0.0042
level (log10) ([13]; 20000 nM): -0.0175 ± 0.011
level (log10) ([13]; 60000 nM): 0.009 ± 0.042
level (log10) ([14]; 6700 nM): -0.058 ± 0.04
level (log10) ([14]; 20000 nM): -0.277 ± 0.049
level (log10) ([15]; 6700 nM): -0.018 ± 0.0042
level (log10) ([15]; 20000 nM): 0.0275 ± 0.0078
level (log10) ([15]; 60000 nM): -0.35 ± 0.037

BT:B cell Proliferation
level (log10) (Octafluoroadipamide; 6700 nM): -0.008 ± 0.025
level (log10) (Octafluoroadipamide; 20000 nM): 0.018 ± 0.013
level (log10) (Octafluoroadipamide; 60000 nM): 0.016 ± 0.025
level (log10) ([1]; 6700 nM): -0.021 ± 0.038
level (log10) ([1]; 20000 nM): 0.008 ± 0.033
level (log10) ([1]; 60000 nM): -0.008 ± 0.034
level (log10) (Heptafluorobutyl iodide; 6700 nM): 0.021 ± 0.021
level (log10) (Heptafluorobutyl iodide; 20000 nM): 0.015 ± 0.0071
level (log10) (Heptafluorobutyl iodide; 60000 nM): 0.021 ± 0.0042
level (log10) (Nonafluoropentanamide; 6700 nM): 0.032 ± 0.0028
level (log10) (Nonafluoropentanamide; 20000 nM): -0.023 ± 0.0042
level (log10) (Nonafluoropentanamide; 60000 nM): 0.0085 ± 0.0092
level (log10) ([2]; 6700 nM): -0.009 ± 0.0099
level (log10) ([2]; 20000 nM): 0.01 ± 0.014
level (log10) ([3]; 6700 nM): -0.0325 ± 0.043
level (log10) ([3]; 20000 nM): -0.0255 ± 0.021
level (log10) ([3]; 60000 nM): -0.008
level (log10) ([4]; 6700 nM): 0.0405 ± 0.066
level (log10) ([4]; 20000 nM): 0.031 ± 0.017
level (log10) ([4]; 60000 nM): 0.0625 ± 0.098
level (log10) ([5]; 6700 nM): 0.0065 ± 0.026
level (log10) ([5]; 20000 nM): 0.0035 ± 0.0035
level (log10) ([5]; 60000 nM): -0.01 ± 0.0085
level (log10) ([6]; 1500 nM): 0.0005 ± 0.021
level (log10) ([6]; 4400 nM): 0.0065 ± 0.0078
level (log10) ([6]; 13000 nM): 0.0015 ± 0.0035
level (log10) ([6]; 40000 nM): 0.0125 ± 0.0078
level (log10) ([7]; 6700 nM): -0.0145 ± 0.016
level (log10) ([7]; 20000 nM): -0.011 ± 0.013
level (log10) ([7]; 60000 nM): 0.008 ± 0.021
level (log10) ([8]; 6700 nM): 0.0115 ± 0.0092
level (log10) ([8]; 20000 nM): -0.001
level (log10) ([8]; 60000 nM): 0.0215 ± 0.0092
level (log10) (Hexafluoroamylene glycol; 6700 nM): 0.0165 ± 0.013
level (log10) (Hexafluoroamylene glycol; 20000 nM): 0.0285 ± 0.0064
level (log10) (Hexafluoroamylene glycol; 60000 nM): 0.0195 ± 0.043
level (log10) ([9]; 6700 nM): 0.0085 ± 0.0021
level (log10) ([9]; 20000 nM): -0.011 ± 0.0014
level (log10) ([9]; 60000 nM): 0.012 ± 0.037
level (log10) ([10]; 6700 nM): 0.0025 ± 0.063
level (log10) ([10]; 20000 nM): 0.034 ± 0.047
level (log10) ([10]; 60000 nM): 0.086 ± 0.0042
level (log10) [11]: -0.24 ± 0.052
level (log10) ([12]; 6700 nM): -0.0045 ± 0.005
level (log10) ([12]; 20000 nM): 0.019 ± 0.0071
level (log10) ([13]; 6700 nM): -0.005 ± 0.04
level (log10) ([13]; 20000 nM): 0.0145 ± 0.00071
level (log10) ([13]; 60000 nM): 0.0285 ± 0.0035
level (log10) ([14]; 6700 nM): 0.023 ± 0.016
level (log10) ([14]; 20000 nM): 0.035 ± 0.031
level (log10) ([15]; 6700 nM): 0.01 ± 0.044
level (log10) ([15]; 20000 nM): 0.0345 ± 0.013
level (log10) ([15]; 60000 nM): 0.101 ± 0.011
